Reference: patent EP2054420B1, “BENZIMIDAZO[1,2-C][1,2,3]THIADIAZOL-7-SULFONAMIDES AS INHIBITORS OF CARBONIC ANHYDRASE AND THE INTERMEDIATES FOR PRODUCTION THEREOF” (Biotechnologijos Institutas, priority 2006, dated 2008)

Target: bovine carbonic anhydrase II (Bos taurus, UniProt P00921)
Assay: fluorescent thermal shift assay (ANS probe)
Type: binding
Conditions: upon increasing concentration of the inhibitor; Figure 3
Method: Example 19. Determination of the observed binding constants by the fluorescent thermal shift assay.
Inhibitor binding to carbonic anhytdrases was also measured by the fluorescent thermal shift assay, which employs 1-anilino-8-naphthalene sulfonate (ANS) probe that visualizes enzyme thermal stabilization by the inhibitor thus determining the binding constant.
Resultant data is consistent with the isothermal titration calorimetry data in determining the observed binding constants of the inhibitors.

Sequence of bovine carbonic anhydrase II (P00921 whole entry): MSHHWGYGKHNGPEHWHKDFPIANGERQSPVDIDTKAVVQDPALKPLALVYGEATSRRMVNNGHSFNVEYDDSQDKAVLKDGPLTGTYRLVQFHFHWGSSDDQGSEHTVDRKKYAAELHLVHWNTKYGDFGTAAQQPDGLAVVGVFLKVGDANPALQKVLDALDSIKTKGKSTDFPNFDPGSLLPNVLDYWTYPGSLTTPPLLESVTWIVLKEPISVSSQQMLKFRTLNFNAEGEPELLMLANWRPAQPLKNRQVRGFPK

Question: With `NS(=O)(=O)c1ccc2nc3n(c2c1)N=S=C3N1CCOCC1` [compound 4, 3-morpholinbenzimidazo[1,2-c][1,2,3]thiadiazol-7-sulfonamide] as the compound, how does the “melting temperature (Tm)” value read?
Answer: Its value is “Tm increase”.
